This is an account of results in PMC5803267, “A small molecule inhibitor of Rheb selectively targets mTORC1 signaling” (Nature Communications, 2018).

Each structure is given as a SMILES string.

The subject of one data set is Jurkat cells. Briefly: Cell size assay in Jurkat cells (forward scatter, flow cytometry). It is filed as cell-based, human. The settings on record: 48 h incubation, dose-dependent. The protocol: Based on the dependence of cell size on mTORC1 activity, we assessed the effect of NR1 on the size of Jurkat cells, a human T cell line grown in suspension and responsive to mTORC1 inhibition.
Data are plotted as percent decrease in forward scatter. […] Error bars represent standard deviation of the mean of duplicates; graph represents data from one of two separate experiments
For the cell size assay, Jurkat Clone E-61 cells were plated in 96-well plates concurrent with compound. The cells were incubated at 37 °C and 5% CO2 for 48 h. PI stain (Invitrogen #727949) was added at a final concentration of 1 µg mL^−1, and cells were incubated for 15 min at room temperature. FACS analysis was performed; at least 10,000 events were collected for each sample. Viable cells (PI minus) were counted for FSC and SSC, and cell size (as measured by FSC) relative to the DMSO control was calculated.
(Flow cytometry measures light scatter and fluorescence of single cells or particles in a stream.)

Data set [1] can be described thus: Pharmacokinetic profile in mouse plasma. The format is in vivo. The protocol:
(§1) The selective inhibition of mTORC1 activation by NR1 in vitro and in cell-based systems prompted us to evaluate the effect of this compound on mTORC1 activity in vivo. […] In particular, the plasma concentration of NR1 was sustained over 5 µM for 2 h after IP administration of a 30 mg kg^−1 dose (Supplementary Fig. 10). We therefore carried out a pharmacodynamic (PD) study to evaluate the efficacy of NR1 at inhibiting mTORC1 signaling in vivo. In this experiment, mice were starved overnight to achieve a low basal level of mTORC1 activation (pre-dose). After a 16 h fast, the animals were treated with either vehicle or 30 mg kg^−1 NR1 and allowed to re-feed for 2 h before sacrifice and tissue collection. mTORC1 activity was measured by quantification of ^S240/244pS6 by Western blot analysis with a specific antibody. We chose kidney and gastrocnemius muscle as target tissues due to the relevance of mTORC1 in renal cell carcinoma[51] and angiomyolipomas in TSC and LAM[12] and for its important role in the regulation of protein synthesis and muscle mass[52]. The results are summarized in Fig. 6 for skeletal muscle and Supplementary Fig. 11 for kidney.
This study was conducted in accordance with the requirements for the humane care and use of animals set forth in the Animal Welfare Act, the IACUC Guide for the Care and Use of Laboratory Animals, applicable Shanghai and state laws, and regulations and policies of Shanghai ChemPartner Ltd. The animals were not randomized, and the study was not blinded. Male C57BL/6 mice (5 per treatment group, 6–7 weeks old) were fasted of food overnight for 16 hours. IP injection of compound dissolved in MC Tween (0.5% methyl cellulose and 0.1% Tween-80 in water) was given, and then the mice were allowed to feed again ad libitum until sacrifice. The animals were euthanized with CO2. Compound levels in the plasma of treated mice were measured by LC-MS/MS and compared to a standard curve of compound diluted into mouse plasma.
Supplementary Figure 10. Pharmacokinetic profile of NR1 in mouse plasma after a single 30
mg/Kg (body weight) intraperitoneal dose. The dotted line corresponds to 5 µM concentration. Error
bars represent standard deviation of the mean values for n=3 mice.

Data set [2] deals with mTORC1 activity (S240/244pS6) in skeletal muscle. Kind of data set: PD study: feeding-induced mTORC1 activation in gastrocnemius muscle. Conditions: mice fasted 16 h, 30 mg kg^−1 IP, re-fed 2 h. It is filed as in vivo, mouse. The protocol: as §1
Fig. 6 NR1 inhibits feeding-induced mTORC1 activation in skeletal muscle. […] After 2 h, gastrocnemius muscle was collected, and ^S240/244pS6 levels were measured by Western blot and quantified. […]

Data set [3] relates to mTORC1 activity (S240/244pS6) in kidney. Briefly: PD study: feeding-induced mTORC1 activation in kidney. The format is in vivo, mouse. The settings on record: mice fasted 16 h, 30 mg kg^−1 IP, re-fed 2 h. The protocol: as §1, with “We chose kidney and gastrocnemius muscle as target tissues due to the relevance of mTORC1 in renal cell carcinoma[51] and angiomyolipomas in TSC and LAM[12] and for its important role in the regulation of protein synthesis and muscle mass[52]. The results are summarized in Fig. 6 for skeletal muscle and Supplementary Fig. 11 for kidney.” left out
This study was conducted in accordance with the requirements for the humane care and use of animals set forth in the Animal Welfare Act, the IACUC Guide for the Care and Use of Laboratory Animals, applicable Shanghai and state laws, and regulations and policies of Shanghai ChemPartner Ltd. The animals were not randomized, and the study was not blinded. […] Compound levels in the plasma of treated mice were measured by LC-MS/MS and compared to a standard curve of compound diluted into mouse plasma. […]

A short description of a further data set: Aqueous solubility. It is filed as physicochemical. The settings on record: result in words.
Where [4] appears, read: ip, mouse plasma, single 30 mg/Kg intraperitoneal dose.

For orientation: AUC(0-inf) means total exposure, with the tail of the curve extrapolated. High values mean more exposure, low ones less exposure. In general, AUC(0-t) refers to exposure summed from dosing to a finite time, without extrapolation to infinity. By Cmax is commonly meant the highest concentration seen after dosing. For orientation: Tmax means the time from dosing to the highest level. `CN(C)C(=O)c1ccc(Cn2c(C(=O)O)cc3c(Br)cc(Sc4ccc(Cl)c(Cl)c4)cc32)cc1` [NR1, 4-bromo-6-(3,4-dichlorophenylthio)-1-(4-(dimethylcarbamoyl)benzyl)-1H-indole-2-carboxylic acid]: in the data set on Jurkat cells, the “size of Jurkat cells” value is “effectively reduced the size”. In addition, in data set [1] (setting [4]), the AUC(0-inf) was found to be 23500 ng·h/mL, the AUC(0-t) was 23500 ng·h/mL, the highest concentration (Cmax) is 7800 ng/mL and the Tmax stood at 0.25 h. For the same molecule, in data set [1] (ip, mouse plasma, single 30 mg/Kg intraperitoneal dose, read-out: Terminal t1/2 (converted)), the half-life was 2.24 h. Further, the “plasma concentration sustained for 2 h” value in data set [1] (mouse, IP, 30 mg kg^−1) is “over 5 µM”. Further, in data set [2], the “T37/46 4E-BP1 in skeletal muscle” value was “clear band shift” and the “mTORC1 activity (S240/244pS6) in skeletal muscle versus vehicle” value is “significantly reduced mTORC1 activity”. Moreover, the “mTORC1 activity (S240/244pS6) in kidney versus vehicle” value in data set [3] is “significantly reduced mTORC1 activity”. In addition, the aqueous solubility result in the data set “Aqueous solubility” is “low aqueous solubility”.
